Tests used:
[1] = 40 mg/mL M4N/PEG 300 stability, visual appearance; type: physicochemical; conditions: for Visual Appearance: 40 mg/mL M4N/PEG 300
Experimental: (§1) The stability of 40 mg/mL M4N dissolved in 100% PEG 300 was evaluated up to 24 hours incubation at 30° C., 45° C. and 60° C. A stock 40 mg/mL M4N in PEG 300 was prepared at 60° C., following the procedure set forth in Example 18. Subsequently, aliquots were removed and incubated at the appropriate temperature. Samples were rotated at 450 rpm during the entire course of incubation. Visual observations and RP-HPLC data were collected throughout. […] The formation of crystals coincided with a loss of soluble M4N (Table 30). The 40 mg/mL M4N/PEG 300 samples incubated at 45° C. and 60° C. were stable after 24 hours incubation as assessed by visual observations and RP-HPLC analysis (Tables 29 and 30).

[2] = Oral (gavage) repeated dose pharmacokinetic study of M4N in ten excipient formulations; conditions: rat, in vivo, 500 mg/kg
Experimental: The purpose of this study was to provide information on pharmacokinetics of a 500 mg/kg dose of M4N in ten different excipient formulations. […] Crl:(CD)SD male and female rats were assigned to ten dosage groups, five rats per sex per group. Samples were prepared having carriers as follows that were administered to the following groups of subjects:
Each formulation of M4N was administered orally via gavage on three occasions. The concentration of the M4N was 60 mg/mL administered at a dosage volume 8.33 mL/kg, based on the most recent body weight. The rats were given the first dose (day 1 of study) after being fasted overnight followed by a 72 hour washout (recovery) period. On day 5 of study (DS 5), the second dose of test article was administered to non-fasted rats followed by a one week washout (recovery) period. On DS 6, the rats were placed on a high fat diet (approximately 10% fat content versus approximately 5% in a standard diet). […] These observations were also recorded once daily on non dosing days and during the post dosage period. Body weights were recorded at least weekly during the acclimation period, daily during the dosage and at sacrifice terminal weight. Feed consumption values were recorded weekly during the dosage period and at sacrifice (feed left value). […] The time of each blood collection was recorded in the raw data. […]

[3] = 40 mg/mL M4N/PEG 300 stability, RP-HPLC analysis; type: physicochemical; conditions: for M4N: 40 mg/mL M4N/PEG 300
Experimental: as §1

Q: Which results are given for `COc1ccc(C[C@@H](C)[C@@H](C)Cc2ccc(OC)c(OC)c2)cc1OC` [Formulation M4N, meso-1,4-bis(3,4-dimethoxyphenyl)-2,3-dimethylbutane]?
A: visual observation ([1]; 40 mg/mL M4N/PEG 300, 6 hours at 30° C.): tiny crystals; visual observation ([1]; 40 mg/mL M4N/PEG 300, 24 hours at 30° C.): even more crystals; Visual Appearance ([1]; 30° C., 2 hours): Clear; Visual Appearance ([1]; 30° C., 4 hours): Clear; Visual Appearance ([1]; 30° C., 6 hours): Few tiny; Visual Appearance ([1]; 30° C., 24 hours): Many tiny; Visual Appearance ([1]; 45° C., 2 hours): Clear; Visual Appearance ([1]; 45° C., 4 hours): Clear; Visual Appearance ([1]; 45° C., 6 hours): Clear; Visual Appearance ([1]; 45° C., 24 hours): Clear; Visual Appearance ([1]; 60° C., 2 hours): Clear; Visual Appearance ([1]; 60° C., 4 hours): Clear; Visual Appearance ([1]; 60° C., 6 hours): Clear; Visual Appearance ([1]; 60° C., 24 hours): Clear; Blood levels on high fat diet versus standard diet or fasting [2]: always higher; amount or types of impurities peaks ([3]; 40 mg/mL M4N/PEG 300, 30° C., 45° C. and 60° C.): No changes; stability by visual observations and RP-HPLC analysis ([3]; 40 mg/mL M4N/PEG 300, 24 hours at 45° C.): stable; stability by visual observations and RP-HPLC analysis ([3]; 40 mg/mL M4N/PEG 300, 24 hours at 60° C.): stable; M4N ([3]; 30° C., 0 hours): 39.5 mg/mL; M4N ([3]; 30° C., 2 hours): 40.8 mg/mL; M4N ([3]; 30° C., 6 hours): 40.6 mg/mL; M4N ([3]; 30° C., 24 hours): 37.4 mg/mL; M4N ([3]; 45° C., 2 hours): 40.4 mg/mL; M4N ([3]; 45° C., 6 hours): 39.8 mg/mL; M4N ([3]; 45° C., 24 hours): 40.6 mg/mL; M4N ([3]; 60° C., 2 hours): 39.1 mg/mL; M4N ([3]; 60° C., 6 hours): 39.2 mg/mL; M4N ([3]; 60° C., 24 hours): 39.2 mg/mL
